Data taken from patent US6797824B2, “Certain 4-aminomethyl-2-substituted imidazole derivatives and 2-aminomethyl-4-substituted imidazole derivatives; new classes of dopamine receptor subtype specific ligands” (Neurogen Corporation, priority 1990, dated 2004).
Where a name gives a salt, the structure may show the parent alone.

Row | Structure (SMILES) | melting point
1 | c1ccc(-c2ncc(CCCN3CCN(c4ncccn4)CC3)[nH]2)cc1 [Compound 125, 2-phenyl-4(5)-[(4-(2-pyrimidinyl)-piperazin-1-yl)-propan-1-yl]-imidazole] | 133 to 135 °C
2 | c1ccc(-c2ncc(CCN3CCN(c4ncccn4)CC3)[nH]2)cc1 [Compound 143, 2-phenyl-4(5)-[(4-(2-pyrimidinyl)-piperazin-1-yl)-ethan-1-yl]-imidazole] | 142 to 144 °C
3 | COc1cc(Br)cc(-c2ncc(CN(C)C)[nH]2)c1OC (as salt: hydrochloride) [Compound 16, 2-(5-Bromo-2,3-dimethoxyphenyl)-4(5)-[(N,N-dimethyl)aminomethyl]-imidazole dihydrochloride] | 194 °C
4 | c1cnc(N2CCN(Cc3cnc(C4CCCCC4)[nH]3)CC2)nc1 [Compound 128, 2-cyclohexyl-4(5)-[(4-(2-pyrimidinyl)-piperazin-1-yl)-methyl]-imidazole] | 210 to 213 °C
5 | Fc1ccnc(N2CCN(Cc3c[nH]c(-c4ccccc4)n3)CC2)n1 (as salt: hydrochloride) [Compound 58, 2-Phenyl-4(5)-[(4(4-fluoro-2-pyrimidinyl)-piperazin-1yl)-methyl]imidazole dihydrochloride] | 188 to 190 °C
6 | O=C(/C=C/c1cnc(-c2ccccc2)[nH]1)N1CCN(c2ncccn2)CC1 [Compound 119, 2-phenyl-4(5)-[(4(2-pyrimidinyl)-piperazin-1-yl)-propen-1-oyl]-imidazole] | 235 to 236 °C
7 | O=C(c1cnc(-c2ccccc2)[nH]1)N1CCN(c2ncccn2)CC1 [Compound 144, 2-phenyl-4(5)-N-[(4-(2-pyrimidinyl)-piperazin-1-yl)-carboxamido]-imidazole] | 231 to 232 °C
8 | O=C(c1ccccc1)c1ncc(CN2CCN(c3ncccn3)CC2)[nH]1 [Compound 116, 2-(benzoyl)-4(5)-[(4-(2-pyrimidinyl)-piperazin-1-yl)-methyl]-imidazole] | 177 to 179 °C
9 | COc1ccc(Br)cc1-c1ncc(CN(C)C)[nH]1 (as salt: hydrochloride) [Compound 1, 2-(5-bromo-2-methoxyphenyl)-4(5)-[(N,N-dimethyl)aminomethyl]-imidazole dihydrochloride] | 242 to 243 °C
10 | Ic1nc(-c2ccccc2)[nH]c1CN1CCN(c2ncccn2)CC1 (as salt: hydroiodid) [Compound 90, 2-phenyl-5-iodo-4(5)-[(4-(2-pyrimidinyl)piperazin-1-yl)methyl]-imidazole hydroiodide salt] | 196 to 199 °C
11 | C[C@@H]1CN(c2ncccn2)C[C@H](C)N1Cc1cnc(-c2ccccc2)[nH]1 [Compound 140, 2-phenyl-4(5)-[(4-(2-pyrimidinyl)-cis-2,6-dimethylpiperazin-1-yl)-methyl]-imidazole] | 130 to 135 °C

Second part, the compound after the results:

Row | melting point | Structure (SMILES)
12 | 81 to 83 °C | c1ccc(CC2CCN(Cc3cnc(-c4cccc5ccccc45)[nH]3)CC2)cc1 [Compound 92, 2-(1-naphthyl)-4(5)-[(4-benzyl-piperidin-1-yl)-methyl]imidazole]
13 | 114 to 117 °C | COc1cccc(-c2ncc(CN3CCC(c4ccccc4)CC3)[nH]2)c1 (as salt: hydrochloride) [Compound 50, 2-(3-Methoxyphenyl)-4(5)[(4-phenyl-piperidin-1-yl)-methyl]-imidazole dihydrochloride]
14 | 238 to 240 °C | c1ccc(-c2nc(CN3CCC(c4ccccc4)CC3)c[nH]2)cc1 (as salt: hydrochloride) [Compound 26, 2-Phenyl-4(5)-[(4-phenyl-piperidin-1-yl)-methyl]-imidazole dihydrochloride]
15 | 142 to 144 °C | Fc1ccccc1-c1nc(CN2CCC(c3ccccc3)CC2)c[nH]1 (as salt: maleate) [Compound 52, 2-(2-Fluorophenyl)-4(5)[(4-phenyl-piperidin-1-yl)-methyl]-imidazole dimaleate]
16 | 61 to 64 °C | CCc1ccc(OC)c(-c2ncc(CN3CCN(c4ccccc4OC)CC3)[nH]2)c1 (as salt: hydrochloride) [Compound 55, 2-(5-Ethyl-2-methoxyphenyl-4(5)-[(4-(2-methoxyphenyl)-piperazin-1-yl)-methyl]-imidazoledihydrochloride]
17 | 189 to 191 °C | c1ccc(CC2CCN(CC3CCCc4[nH]c(-c5ccccc5)nc43)CC2)cc1 (stereo not drawn) [Compound 138, 2-phenyl-7-[(4-benzyl-piperidin-1-yl)-methyl]-4,5,6,7-tetrahydrobenzimidazole]
18 | 155 to 157 °C | c1ccc(CC2CCN(Cc3ncc(-c4ccccc4)[nH]3)CC2)cc1 (as salt: fumarate) [Compound 77, 4phenyl-2(5)-[(4-benzylpiperidin-1-yl)-methyl]imidazole]
19 | 217 to 218 °C | COc1ccccc1N1CCN(Cc2cnc(-c3cccc(OC)c3OC)[nH]2)CC1 (as salt: hydrochloride) [Compound 21, 2-(2,3-Dimethoxyphenyl)-4(5)-[(4-(2-methoxyphenyl)-piperazin-1-yl)-methyl]-imidazole dihydrochloride]
20 | 179 to 181 °C | Clc1ccc(N2CCN(Cc3cnc(-c4ccccc4)[nH]3)CC2)cc1Cl [Compound 61, 2-Phenyl-4(5)-[(4(3,4-dichlorophenyl)-piperazin-1yl-)methyl]imidazole]
21 | 196 to 199 °C | COc1ccc(-c2ncc(CN3CCC(c4ccccc4)CC3)[nH]2)cc1 (as salt: hydrochloride) [Compound 47, 2-(4-Methoxyphenyl)-4(5)-[(4-phenyl-piperidin-1-yl)-methyl]-imidazole dihydrochloride]
22 | 169 to 171 °C | CC(c1cnc(-c2ccccc2)[nH]1)N1CCC(Cc2ccccc2)CC1 (stereo not drawn) (as salt: hydrochloride) [Compound 91, 2-phenyl-4(5)-[1-((4-benzyl-piperidin-1-yl)-ethan-1-yl)]imidazole dihydrochloride salt]
23 | 221 to 225 °C | c1ccc(-c2nc(-c3ccccc3)c(CN3CCN(c4ncccn4)CC3)[nH]2)cc1 [Compound 132, 2,5-diphenyl-4(5)-[(4-(2-pyrimidinyl)piperazin-1-yl)methyl]-imidazole]
24 | 95 to 97 °C | COc1ccccc1N1CCN(Cc2cnc(-c3ccc(F)cc3)[nH]2)CC1 [Compound 20, 2-(4-Fluorophenyl)-4(5)-[(4-(2-methoxyphenyl)-piperazin-1-yl)-methyl]-imidazole]
25 | 234 to 236 °C | c1ccc(CC2CCN(Cc3cnc(-c4ccccc4)[nH]3)CC2)cc1 (as salt: hydrochloride) [Compound 25, 2-Phenyl-4(5)-[(4-benzyl-piperidin-1-yl)methyl]-imidazole dihydrochloride]
26 | 142 to 145 °C | Cc1ccc(Cl)cc1N1CCN(Cc2cnc(-c3ccccc3)[nH]2)CC1 (as salt: hydrochloride) [Compound 60, 2-Phenyl-4(5)-[(4(5-chloro-2-methylphenyl)-piperazin-1yl-)-methyl]imidazole dihydrochloride]
27 | 64 to 68 °C | Fc1ccc(N2CCN(Cc3cnc(-c4ccccc4)[nH]3)CC2)cc1 (as salt: hydrochloride) [Compound 56, 2-Phenyl-4(5)-[(4(4-fluorophenyl)-piperazin-1yl-)methyl]imidazole dihydrochloride]
